Data reported in ChEMBL document CHEMBL1156471, “Targeting host cell furin proprotein convertases as a therapeutic strategy against bacterial toxins and viral pathogens” (J Biol Chem, 2007).
Non-standard residues stand in square brackets, D forms with d. Residues, ends and D or L forms follow the SMILES beside them. βAla = NCCC(=O)O; Sar = CNCC(=O)O

The compounds below were run against Furin (Homo sapiens, UniProt P09958).
Furin, sequence (P09958 whole entry): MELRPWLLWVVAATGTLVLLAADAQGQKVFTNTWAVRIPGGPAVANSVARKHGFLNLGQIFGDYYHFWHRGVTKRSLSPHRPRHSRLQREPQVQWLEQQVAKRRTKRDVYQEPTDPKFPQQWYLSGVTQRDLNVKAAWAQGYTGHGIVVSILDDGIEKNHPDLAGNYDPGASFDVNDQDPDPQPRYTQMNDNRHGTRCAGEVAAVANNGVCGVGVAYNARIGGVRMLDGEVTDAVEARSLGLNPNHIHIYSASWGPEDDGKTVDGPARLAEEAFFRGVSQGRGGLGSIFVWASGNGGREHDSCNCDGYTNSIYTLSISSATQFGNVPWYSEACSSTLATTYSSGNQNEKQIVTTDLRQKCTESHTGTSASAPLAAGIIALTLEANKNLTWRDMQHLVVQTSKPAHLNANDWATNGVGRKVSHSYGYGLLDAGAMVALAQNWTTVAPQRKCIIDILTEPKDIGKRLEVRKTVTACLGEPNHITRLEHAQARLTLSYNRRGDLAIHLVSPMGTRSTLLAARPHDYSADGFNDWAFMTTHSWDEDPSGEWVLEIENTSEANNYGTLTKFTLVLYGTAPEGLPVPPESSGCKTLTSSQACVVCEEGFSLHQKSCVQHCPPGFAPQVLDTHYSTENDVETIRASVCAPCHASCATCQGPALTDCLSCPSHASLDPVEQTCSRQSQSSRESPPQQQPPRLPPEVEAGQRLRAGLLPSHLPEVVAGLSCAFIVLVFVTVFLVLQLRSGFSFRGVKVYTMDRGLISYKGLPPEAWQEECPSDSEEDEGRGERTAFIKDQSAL
For C[C@H](NC(=O)[C@H](CCCN=C(N)N)NC(=O)[C@H](CCC(N)=O)NC(=O)[C@@H]1CCCN1C(=O)[C@@H](N)[C@@H](C)O)C(=O)N[C@@H](CCCN=C(N)N)C(=O)N[C@@H](CCCN=C(N)N)C(=O)N[C@@H](CCCN=C(N)N)C(=O)N[C@@H](CCCCN)C(=O)N[C@@H](CCCCN)C(=O)N[C@@H](CCCN=C(N)N)C(=O)NCCC(=O)O (H-TPQRARRRKKR[βAla]-OH), the Ki was over 100 nM. In the case of H-TPRERRAAKRV-OH, the Ki is reported as over 100 nM. H-TPREARRKKR-OH showed a Ki of over 100 nM. H-TPRARRRKKRN-OH gave a Ki of 45 nM. H-TPRERRRKKAG-OH was tested, and the Ki was over 100 nM. In the case of H-TPQRARRRKKRN-OH, the Ki is reported as over 100 nM. Compound H-TPRARRRKKRS-NH2 has a Ki of over 100 nM. C[C@@H](O)[C@H](N)C(=O)N1CCC[C@H]1C(=O)N[C@@H](CCCN=C(N)N)C(=O)NC1(C(=O)N[C@@H](CCCN=C(N)N)C(=O)N[C@@H](CCCN=C(N)N)C(=O)N[C@@H](CCCN=C(N)N)C(=O)N[C@@H](CCCCN)C(=O)N[C@@H](CCCCN)C(=O)N[C@@H](CCCN=C(N)N)C(=O)NCC(N)=O)CCCC1 gave a Ki of over 100 nM. Work on H-TPQRARRRKKRD-OH yielded a Ki of 50 nM. C[C@H](NC(=O)[C@H](CCCN=C(N)N)NC(=O)[C@H](CCC(N)=O)NC(=O)[C@@H]1CCCN1C(=O)[C@@H](N)[C@@H](C)O)C(=O)N[C@@H](CCCN=C(N)N)C(=O)N[C@@H](CCCN=C(N)N)C(=O)N[C@@H](CCCN=C(N)N)C(=O)N[C@@H](CCCCN)C(=O)N[C@@H](CCCCN)C(=O)N[C@@H](CCCN=C(N)N)C(=O)N[C@@H](CCCN=C(N)N)C(=O)O gave a Ki of over 100 nM. H-TPRERRRKKAG-NH2 was tested, and the Ki was over 100 nM. Compound H-TPRWRRRKKRG-NH2 has a Ki of over 100 nM. Compound C[C@@H](O)[C@H](N)C(=O)N1CCC[C@H]1C(=O)N[C@@H](CCCNC(=N)N)C(=O)NCCCCCC(=O)N[C@@H](CCCNC(=N)N)C(=O)N[C@@H](CCCNC(=N)N)C(=O)N[C@@H](CCCNC(=N)N)C(=O)N[C@@H](CCCCN)C(=O)N[C@@H](CCCCN)C(=O)N[C@@H](CCCNC(=N)N)C(=O)NCC(N)=O has a Ki of over 100 nM. In the case of H-TPRRRRRKKRG-OH, the Ki is reported as over 100 nM. Work on C[C@H](N)C(=O)N[C@@H](C)C(=O)N[C@@H](CCCN=C(N)N)C(=O)N[C@@H](CCC(=O)O)C(=O)N[C@@H](CCCN=C(N)N)C(=O)N[C@@H](CCCN=C(N)N)C(=O)N[C@@H](CCCN=C(N)N)C(=O)N[C@@H](CCCCN)C(=O)N[C@@H](CCCCN)C(=O)N[C@@H](CCCN=C(N)N)C(=O)N(C)CC(=O)O (H-AARERRRKKR[Sar]-OH) yielded a Ki of over 100 nM. H-TPRCRRRKKRG-OH was tested, and the Ki was over 100 nM. Compound C[C@H](NC(=O)[C@H](CCCNC(=N)N)NC(=O)[C@H](CCC(=O)O)NC(=O)[C@H](CCCNC(=N)N)NC(=O)[C@@H]1CCCN1C(=O)[C@@H](N)[C@@H](C)O)C(=O)N[C@@H](CCCNC(=N)N)C(=O)N[C@@H](CCCCN)C(=O)N[C@@H](CCCCN)C(=O)N[C@@H](CCCNC(=N)N)C(=O)N(C)CC(=O)O (H-TPRERARKKR[Sar]-OH) has a Ki of over 100 nM. H-TPAARRRKKRG-OH was tested, and the Ki was over 100 nM. C[C@H](NC(=O)[C@H](CCC(=O)O)NC(=O)[C@H](CCCNC(=N)N)NC(=O)[C@@H]1CCCN1C(=O)[C@@H](N)[C@@H](C)O)C(=O)N[C@@H](CCCNC(=N)N)C(=O)N[C@@H](CCCNC(=N)N)C(=O)N[C@@H](CCCCN)C(=O)N[C@@H](CCCCN)C(=O)N[C@@H](CCCNC(=N)N)C(=O)N(C)CC(=O)O (H-TPREARRKKR[Sar]-OH) was tested, and the Ki was over 100 nM. H-TPRERRAAKR-OH was tested, and the Ki was over 100 nM. With C[C@@H](O)[C@H](N)C(=O)N1CCC[C@H]1C(=O)N[C@@H](CCCN=C(N)N)C(=O)N[C@@H](CCCNC(N)=O)C(=O)N[C@@H](CCCN=C(N)N)C(=O)N[C@@H](CCCN=C(N)N)C(=O)N[C@@H](CCCN=C(N)N)C(=O)N[C@@H](CCCCN)C(=O)N[C@@H](CCCCN)C(=O)N[C@@H](CCCN=C(N)N)C(=O)NCC(=O)O the Ki was over 100 nM. Compound C[C@H](N)C(=O)N1CCC[C@H]1C(=O)N[C@@H](CCCNC(=N)N)C(=O)N[C@@H](CCC(=O)O)C(=O)N[C@@H](CCCNC(=N)N)C(=O)N[C@@H](CCCNC(=N)N)C(=O)N[C@@H](CCCNC(=N)N)C(=O)N[C@@H](CCCCN)C(=O)N[C@@H](CCCCN)C(=O)N[C@@H](CCCNC(=N)N)C(=O)N(C)CC(=O)O (H-APRERRRKKR[Sar]-OH) has a Ki of over 100 nM. H-TPRSRRRKKRG-OH gave a Ki of over 100 nM. Work on CCCC[C@H](NC(=O)[C@H](CCCNC(=N)N)NC(=O)[C@H](CCCCN)NC(=O)[C@H](CCCCN)NC(=O)[C@H](CCCNC(=N)N)NC(=O)[C@H](CCCNC(=N)N)NC(=O)[C@H](CCCNC(=N)N)NC(=O)[C@H](C)NC(=O)[C@H](CCCNC(=N)N)NC(=O)[C@@H]1CCCN1C(=O)[C@@H](N)[C@@H](C)O)C(=O)O yielded a Ki of 81 nM. C[C@@H](O)[C@H](N)C(=O)N1CCC[C@H]1C(=O)N[C@@H](CCCNC(=N)N)C(=O)NCCC(=O)N[C@@H](CCCNC(=N)N)C(=O)N[C@@H](CCCNC(=N)N)C(=O)N[C@@H](CCCNC(=N)N)C(=O)N[C@@H](CCCCN)C(=O)N[C@@H](CCCCN)C(=O)N[C@@H](CCCNC(=N)N)C(=O)NCC(N)=O showed a Ki of over 100 nM. For H-TPRERRAAKRG-OH, the Ki was over 100 nM. For H-TPQRHRRRKKRG-OH, the Ki was over 100 nM. In the case of H-TPRERARKKR-OH, the Ki is reported as over 100 nM. H-TAAERRRKKRG-OH gave a Ki of over 100 nM. Compound H-TPRERRAKKRV-OH has a Ki of over 100 nM. In the case of H-TPRAARRKKRV-OH, the Ki is reported as over 100 nM. C[C@H](NC(=O)[C@H](C)NC(=O)[C@@H](N)[C@@H](C)O)C(=O)N[C@@H](CCC(=O)O)C(=O)N[C@@H](CCCNC(=N)N)C(=O)N[C@@H](CCCNC(=N)N)C(=O)N[C@@H](CCCNC(=N)N)C(=O)N[C@@H](CCCCN)C(=O)N[C@@H](CCCCN)C(=O)N[C@@H](CCCNC(=N)N)C(=O)N(C)CC(=O)O (H-TAAERRRKKR[Sar]-OH) was tested, and the Ki was over 100 nM. H-TPRLRRRKKRG-NH2 gave a Ki of over 100 nM. H-TPRERRAKKRG-OH gave a Ki of over 100 nM. C[C@@H](O)[C@H](N)C(=O)N1CCC[C@H]1C(=O)N[C@@H](CCC(N)=O)C(=O)N[C@@H](CCCN=C(N)N)C(=O)N[C@@H](CCCN=C(N)N)C(=O)N[C@@H](CCCN=C(N)N)C(=O)N[C@@H](CCCN=C(N)N)C(=O)N[C@@H](CCCN=C(N)N)C(=O)N[C@@H](CCCCN)C(=O)N[C@@H](CCCCN)C(=O)N[C@@H](CCCNC(=N)N)C(=O)NCC(=O)O was tested, and the Ki was over 100 nM. H-TPRDRRRKKRG-NH2 showed a Ki of over 100 nM. With H-TPAERRRKKRG-NH2 the Ki was over 100 nM. For C[C@@H](O)[C@H](N)C(=O)N1CCC[C@H]1C(=O)N[C@@H](CCCN=C(N)N)C(=O)N[C@@H](CCCCN)C(=O)N[C@@H](CCCN=C(N)N)C(=O)N[C@@H](CCCN=C(N)N)C(=O)N[C@@H](CCCN=C(N)N)C(=O)N[C@@H](CCCCN)C(=O)N[C@@H](CCCCN)C(=O)N[C@@H](CCCN=C(N)N)C(=O)NCC(N)=O, the Ki was over 100 nM. H-TPRERRRKAAG-OH showed a Ki of over 100 nM. For H-TARERRRKKRG-OH, the Ki was over 100 nM. In the case of H-TPRARRRKKRP-OH, the Ki is reported as over 100 nM. For H-TPRDRRRKKRG-OH, the Ki was over 100 nM. H-TPREAARKKRV-OH gave a Ki of over 100 nM. For H-TPQRTRRRKKRG-OH, the Ki was over 100 nM. C[C@@H](O)[C@H](N)C(=O)N1CCC[C@H]1C(=O)N[C@@H](CCCNC(=N)N)C(=O)N[C@H](CCCCN)C(=O)N[C@@H](CCCNC(=N)N)C(=O)N[C@@H](CCCNC(=N)N)C(=O)N[C@@H](CCCNC(=N)N)C(=O)N[C@@H](CCCCN)C(=O)N[C@@H](CCCCN)C(=O)N[C@@H](CCCNC(=N)N)C(=O)NCC(=O)O showed a Ki of over 100 nM. With H-TPQRWRRRKKRG-OH the Ki was over 100 nM. Work on C[C@H](NC(=O)[C@H](CCCN=C(N)N)NC(=O)[C@@H]1CCCN1C(=O)[C@@H](N)[C@@H](C)O)C(=O)N[C@@H](CCCN=C(N)N)C(=O)N[C@@H](CCCN=C(N)N)C(=O)N[C@@H](CCCN=C(N)N)C(=O)N[C@@H](CCCCN)C(=O)N[C@@H](CCCCN)C(=O)N[C@@H](CCCN=C(N)N)C(=O)O yielded a Ki of 138 nM. H-TPRQRRRKKRG-NH2 was tested, and the Ki was over 100 nM. H-TPRARRRKKRQ-NH2 gave a Ki of 47 nM. CSCC[C@H](NC(=O)[C@H](CCCN=C(N)N)NC(=O)[C@H](CCC(N)=O)NC(=O)[C@@H]1CCCN1C(=O)[C@@H](N)[C@@H](C)O)C(=O)N[C@@H](CCCN=C(N)N)C(=O)N[C@@H](CCCN=C(N)N)C(=O)N[C@@H](CCCN=C(N)N)C(=O)N[C@@H](CCCCN)C(=O)N[C@@H](CCCCN)C(=O)N[C@@H](CCCNC(=N)N)C(=O)NCC(=O)O was tested, and the Ki was over 100 nM. H-TPREARRKKRG-NH2 showed a Ki of over 100 nM. Compound C[C@@H](O)[C@H](N)C(=O)N1CCC[C@H]1C(=O)N[C@@H](CCC(N)=O)C(=O)N[C@@H](CCCN=C(N)N)C(=O)N[C@@H](CC1CCCCC1)C(=O)N[C@@H](CCCN=C(N)N)C(=O)N[C@@H](CCCN=C(N)N)C(=O)N[C@@H](CCCN=C(N)N)C(=O)N[C@@H](CCCCN)C(=O)N[C@@H](CCCCN)C(=O)N[C@@H](CCCNC(=N)N)C(=O)NCC(=O)O has a Ki of over 100 nM. In the case of H-GGGTPRARRRKKRY-OH, the Ki is reported as 42 nM. H-TPAERRRKKRG-OH was tested, and the Ki was over 100 nM. Compound H-TPRMRRRKKRG-NH2 has a Ki of over 100 nM. For H-AAAERRRKKRV-OH, the Ki was over 100 nM. Work on C[C@H](NC(=O)[C@H](CCCCN)NC(=O)[C@H](CCCNC(=N)N)NC(=O)[C@H](CCCNC(=N)N)NC(=O)[C@H](CCCNC(=N)N)NC(=O)[C@H](CCC(=O)O)NC(=O)[C@H](CCCNC(=N)N)NC(=O)[C@@H]1CCCN1C(=O)[C@@H](N)[C@@H](C)O)C(=O)N[C@@H](C)C(=O)N(C)CC(=O)O (H-TPRERRRKAA[Sar]-OH) yielded a Ki of over 100 nM. Compound H-TARERRRKKRV-OH has a Ki of over 100 nM. H-TPRARRRKKRK-OH gave a Ki of over 100 nM. Work on C[C@H](NC(=O)[C@H](C)NC(=O)[C@H](CCC(=O)O)NC(=O)[C@H](CCCNC(=N)N)NC(=O)[C@@H]1CCCN1C(=O)[C@@H](N)[C@@H](C)O)C(=O)N[C@@H](C)C(=O)N[C@@H](CCCCN)C(=O)N[C@@H](CCCCN)C(=O)N[C@@H](CCCNC(=N)N)C(=O)N(C)CC(=O)O (H-TPREAAAKKR[Sar]-OH) yielded a Ki of over 100 nM. H-TPQRARRRKKRP-OH was tested, and the Ki was over 100 nM. C[C@@H](O)[C@H](N)C(=O)N1CCC[C@H]1C(=O)N[C@@H](CCC(N)=O)C(=O)N[C@@H](CCCNC(=N)N)C(=O)N[C@@H](CCCNC(N)=O)C(=O)N[C@@H](CCCNC(=N)N)C(=O)N[C@@H](CCCNC(=N)N)C(=O)N[C@@H](CCCNC(=N)N)C(=O)N[C@@H](CCCCN)C(=O)N[C@@H](CCCCN)C(=O)N[C@@H](CCCNC(=N)N)C(=O)NCC(=O)O showed a Ki of over 100 nM. Work on H-TPRERRRKKRV-OH yielded a Ki of over 100 nM. H-TPRAARRKKRG-OH showed a Ki of over 100 nM. H-TPRGRRRKKRG-OH showed a Ki of over 100 nM. H-TPRVRRRKKRG-NH2 was tested, and the Ki was over 100 nM. Work on H-TPRERRRKARG-OH yielded a Ki of over 100 nM. In the case of H-TAAERRRKKR-OH, the Ki is reported as over 100 nM.
